In patent US20090312265A1, “NOVEL ANTIMICROBIAL PEPTIDES AND USE THEREOF” (priority 2006, published 2009):
No end group written: not given here.

Assays:
Erythrocytes = format: cell-based; settings: 1 h
Experimental: EDTA-blood was centrifuged at 800 g for 10 min, whereafter plasma and buffy coat were removed. The erythrocytes were washed three times and resuspended in 5% PBS, pH 7.4. The cells were then incubated with end-over-end rotation for 1 h at 37° C. in the presence of peptides (3-60 μM). 2% Triton X-100 (Sigma-Aldrich) served as positive control. The samples were then centrifuged at 800 g for 10 min. The absorbance of hemoglobin release was measured at λ 540 nm and is in the plot expressed as % of TritonX-100 induced hemolysis (FIG. 5 and table 6). The peptides in table 3A (SEQ ID No. 12-18) were evaluated as described above.

[1] = Liposome leakage assay (carboxyfluorescein release), PC liposomes; settings: scale: Triton X100 = 100% release; for PC + NaCl (CF release, liposome leakage): 10 mM Tris pH 7.4 with additional 150 mM NaCl; for PC − NaCl (CF release, liposome leakage): 10 mM Tris pH 7.4 without NaCl
Experimental: (§1) Dry lipid films were prepared by dissolving either dioleoylphosphatidylcholine (Avanti Polar Lipids, Alabaster, Ala.) (60 mol %) and cholesterol (Sigma, St Louis, Mo.) (40 mol %), or dioleoylphosphatidylcholine (30 mol %), dioleoylphosphatidic acid (Avanti Polar Lipids, Alabaster, Ala.) (30 mol %) and cholesterol (40 mol %) in chloroform, and then removing the solvent by evaporation under vacuum overnight. Subsequently, buffer solution containing 10 mM Tris, pH 7.4, either with or without additional 150 mM NaCl, was added together with 0.1 M carboxyfluorescein (CF) (Sigma, St Louis, Mo.). After hydration, the lipid mixture was subjected to eight freeze-thaw cycles consisting of freezing in liquid nitrogen and heating to 60° C. Unilamellar liposomes with a diameter of about 130 nm (as found with cryo-TEM; results not shown) were generated by multiple extrusions through polycarbonate filters (pore size 100 nm) mounted in a LipoFast miniextruder (Avestin, Ottawa, Canada). Untrapped carboxyfluorescein was then removed by filtration through two subsequent Sephadex G-50 columns with the relevant Tris buffer as eluent. Both extrusion and filtration was performed at 22° C. In the liposome leakage assay, the well lmown self-quenching of CF was used. Thus, at 100 mM CF is self-quenched, and the recorded fluorescence intensity from liposomes with entrapped CF is low. […] The CF release was determined by monitoring the emitted fluorescence at 520 nm from a liposome dispersion (10 mM lipid in 10 mM Tris pH 7.4). An absolute leakage scale is obtained by disrupting the liposomes at the end of the experiment through addition of 0.8 mM Triton X100 (Sigma, St Louis, Mo.), thereby causing 100% release and dequenching of CF. A SPEX-fluorolog 1650 0.22-m double spectrometer (SPEX Industries, Edison, N.J.) was used for the liposome leakage assay (see Table 4).

[2] = CD-spectroscopy, helix content; format: physicochemical; settings: 10 mM Tris, 10 μM peptide, 37° C.; for Helix content, PA: pH 7.4, PA liposome dispersion (100 μM lipid); for Helix content, PC: pH 7.4, PC liposome dispersion (100 μM lipid); for Helix content, Buffer: pH 7.4, buffer
Experimental: The CD spectra of the peptides in solution were measured on a Jasco J-810 Spectropolarimeter (Jasco, U.K.). The measurements were performed at 37° C. in a 10 mm quartz cuvet under stirring and the peptide concentration was 10 μM. The effect of on peptide secondary structure of liposomes at a lipid concentration of 100 μM was monitired in the range 200-250 nm. The only peptide conformations observed under the conditions investigated were α-helix and random coil. The fraction of the peptide in α-helical conformation, Xα, is calculated from
where A is the recorded CD signal at 225 nm, and Aα and Ac are the CD signal at 225 nm for a reference peptide in 100% α-helix and 100% random coil conformation, respectively. 100% α-helix and 100% random coil references were obtained from 0.133 mM (monomer concentration) poly-L-lysine in 0.1 M NaOH and 0.1 M HCl, respectively. To account for the instrumental differences between measurements the background value (detected at 250 nm, where no peptide signal is present) was subtracted. Signals from the bulk solution were also corrected for (see Table 5).

bacteria = test: Antibacterial activity in vitro; format: cell-based
Experimental: Radial diffusion assays (RDA) were performed essentially as described earlier (Lehrer, R. I., Rosenman, M., Harwig, S. S., Jackson, R. & Eisenhauer, P. (1991) Ultrasensitive assays for endogenous antimicrobial polypeptides, J Immunol Methods. 137, 167-73.).
Briefly, bacteria (E. coli, P. aeruginosa, S. aureus, B. subtilis) or fungi (C. albicans) were grown to mid-logarithmic phase in 10 ml of full-strength (3% w/v) trypticase soy broth (TSB) (Becton-Dickinson, Cockeysville, Md.). The microorganisms were washed once with 10 mM Tris, pH 7.4. 4×10^6 bacterial cfu or 1×10^5 fungal cfu was added to 5 ml of the underlay agarose gel, consisting of 0.03% (w/v) TSB, 1% (w/v) low-electroendoosmosistype (Low-EEO) agarose (Sigma, St Louise Mo.) and a final concentration of 0.02% (v/v) Tween 20 (Sigma). The underlay was poured into a Ø 85 mm petri dish. After agarose solidified, 4 mm-diameter wells were punched and 6 μl of test sample was added to each well. Plates were incubated at 37° C. for 3 hours to allow diffusion of the peptides. The underlay gel was then covered with 5 ml of molten overlay (6% TSB and 1% Low-EEO agarose in dH2O). Antimicrobial activity of a peptide is visualized as a clear zone around each well after 18-24 hours of incubation at 37° C. for bacteria and 28° C. for Candida albicans.

[3] = Liposome leakage assay (carboxyfluorescein release), PA liposomes; settings: scale: Triton X100 = 100% release; for PA − NaCl (CF release, liposome leakage): 10 mM Tris pH 7.4 without NaCl; for PA + NaCl (CF release, liposome leakage): 10 mM Tris pH 7.4 with additional 150 mM NaCl
Experimental: as §1

[4] = system: Gram-positive and Gram-negative bacterial, fungal, and viral pathogens; settings: Niyonsaba and Ogawa 2005; cited from earlier work
E. coli bacteria = test: Antibacterial effect of HB-EGF in vitro (bacterial survival); format: cell-based; settings: HB-EGF at 6 μM, 2×10^6 cfu/ml E. coli, 10 mM Tris, pH 7.4
Experimental: The antibacterial effect of HB-EGF (Q99075, SEQ ID NO: 19) was evaluated in vitro. 2×10^6 cfu/ml of E. coli bacteria were incubated in 50 μl with HB-EGF at 6 μM in 10 mM Tris, pH 7.4 buffer (Tris). The difference in bacterial survival was significant for the HB-EGF treated material vs. the control (no HB-EGF present), i.e. HB-EGF does in it self posses an antibacterial effect, although less pronounced than the peptides being derived from it.

| Substance | Erythrocytes Hemolysis (%) Mean (Erythrocytes) | PC + NaCl (CF release, liposome leakage) [1] | PC − NaCl (CF release, liposome leakage) [1] | Helix content, PA [2] | Helix content, PC [2] | Helix content, Buffer [2] | antibacterial activity in vitro (bacteria) | PA − NaCl (CF release, liposome leakage) [3] | PA + NaCl (CF release, liposome leakage) [3] | antimicrobial activity spectrum [4] | difference in bacterial survival vs. control (E. coli bacteria) |
| --- | --- | --- | --- | --- | --- | --- | --- | --- | --- | --- | --- |
| KRKKKGKGWGKKRLPCLRKY [KRK20: E] | 2.73% |  |  |  |  |  |  |  |  |  |  |
| LKKNGSCKRGPRTHYGQKAIL (human growth factor) [LKK21, FGF1_HUMAN aa 126-146] |  | 6 ± 2 | 26 ± 3 | 10 ± 4% | 13 ± 5% | 11 ± 2% | shows antibacterial activity in vitro | 4 ± 2 |  |  |  |
| LKIKTKKVNTADQCANRCTRNKGL (listed as Homo sapiens) [LKI24] |  | 6 ± 3 | 54 ± 4 | 14 ± 4% | 9 ± 3% | 13 ± 3% |  | 25 ± 4 | 2 ± 2 |  |  |
| LNGKGAPRRGQKTRRKNTSAH (listed as Homo sapiens) [LNG21] |  |  | 12 ± 2 |  |  |  |  | 9 ± 5 |  |  |  |
| QRAKTPQTRVTIRTVRVRRPP (listed as Homo sapiens) [QRA21] |  |  | 10 ± 1 |  |  |  | show antibacterial activity in vitro | 0 ± 1 |  |  |  |
| PKRKKKGGKNGKNRRNRKKKN (listed as Homo sapiens) [PKR21] |  | 6 ± 1 | 38 ± 3 | 9 ± 4% | 9 ± 3% | 10 ± 2% | shows antibacterial activity in vitro | 13 ± 8 |  |  |  |
| KRKKKGKGLGKKRDPCLRKY [KRK20: A] | 2.25% |  |  |  |  |  |  |  |  |  |  |
| KRKRKGKGLGKKKDPCLRKF [KRK20: B] | 2.26% |  |  |  |  |  |  |  |  |  |  |
| LRPVQVRKIEIVRRKPIFKKATVT (LRPVQVRKIEIVRKKPIFKKATVT; listed as Homo sapiens) [LRP24] |  | 4 ± 4 | 33 ± 11 | 15 ± 3% | 10 ± 4% | 13 ± 3% | show antibacterial activity in vitro | 44 ± 10 | 6 ± 3 |  |  |
| LNQKGIPVRGKKTKKEQKTAH (listed as Homo sapiens) [LNQ21, FGF7_HUMAN aa 167-187] |  |  | 2 ± 1 |  |  |  |  | 10 ± 1 |  |  |  |
| LLGDFFRKSKEKIGKEFKRIVQRIKDFLRNLVPRTES [LL-37, reference compound] |  | 73 ± 7 | 100 ± 10 | 100 ± 10% | 100 ± 10% | 60 ± 10% |  | 100 ± 10 | 57 ± 6 | broad-spectrum antimicrobial activity |  |
| GKRKKKGKGLGKKRDPCLRKYK (listed as Homo sapiens) [GKR22] |  | 4 ± 1 | 72 ± 8 | 10 ± 3% | 5 ± 2% | 8 ± 2% | shows antibacterial activity in vitro | 42 ± 7 | 2 ± 1 |  |  |
| KRKKKGKGLGKKRWPCLRKY [KRK20: G] | 2.29% |  |  |  |  |  |  |  |  |  |  |
| HB-EGF: Human heparin-binding EGF-like growth factor (accession code Q99075) |  |  |  |  |  |  |  |  |  |  | significant |
| KRKKKGKGWGKKRWPCLRKY [KRK20: F] | 3.14% |  |  |  |  |  |  |  |  |  |  |
| RVRRPPKGKHRKFHTHDKTA (RVRRPPKGKHRKFKHTHDKTA; listed as Homo sapiens) [RVR21] |  | 6 ± 1 | 55 ± 2 | 6 ± 3% | 11 ± 4% | 8 ± 4% | show antibacterial activity in vitro | 18 ± 8 | 8 ± 2 |  |  |
| KRKKKGKGLGKKRLPCLRKY [KRK20: C] | 2.31% |  |  |  |  |  |  |  |  |  |  |
| GRPRESGKKRKRKRKLKPT (listed as Homo sapiens) [GRP19] |  | 4 ± 1 | 30 ± 12 | 8 ± 3% | 8 ± 4% | 9 ± 2% | show antibacterial activity in vitro | 20 ± 2 | 5 ± 1 |  |  |
| LKRTGQYKLGSKTGPGQKAIL (listed as Homo sapiens) [LKR21, FGF2_HUMAN aa 127-147] |  |  | 2 ± 1 |  |  |  |  | 3 ± 1 |  |  |  |
| KRKKKGKGWGKKRDPCLRKY [KRK20: D] | 2.56% |  |  |  |  |  |  |  |  |  |  |
